From US9119882B2, “Volatile distillate by-product of mint oil that promotes absorption and/or bioavailability of compounds of bio-medical and nutritional interest” (Flavor Liquidating (G) Corporation (new name of A.M. Todd …, priority 2008, dated 2015)

Test system: Caco-2 cells
Assay: Pilot study: uptake of CoQ10 into Caco-2 cells
Format: in vitro ADME, human
Settings: 1 millimolar CoQ10, two hours, control set at 100%
Description: An initial pilot study established that VDMO improved the uptake of CoQ10 into Caco-2 cells. Caco-2 cells were grown for 15 days in the bottom of 24-well plastic culture dishes and then were exposed to 1 millimolar concentrations of CoQ10 mixed with 5%, 1% or no VDMO. The VDMO utilized here was as analyzed in Table 3b. Cells were returned to the incubator for two hours, then cells and media were separated by centrifugation. The cellular fraction was washed and centrifuged a second time and the amount of CoQ10 inside the cells was determined by Liquid Chromatography Mass Spectrometry. The experiment was repeated twice; the absorption in the control group was set to 100% and treatments were compared accordingly; results are shown in Table 4.

Absorption (%) Experiment 1: 100 ± 6.1% | Absorption (%) Experiment 2: 100 ± 0.3%
Compound: COC1=C(OC)C(=O)C(C/C=C(\C)CC/C=C(\C)CC/C=C(\C)CC/C=C(\C)CC/C=C(\C)CC/C=C(\C)CC/C=C(\C)CC/C=C(\C)CC/C=C(\C)CCC=C(C)C)=C(C)C1=O [CoQ10 + no VDMO; Control, Coenzyme Q10 (ubiquinone; CoQ10)]
